Data published in patent US20250188171A1, “COMBINATION THERAPY INCLUDING ANTIBODIES THAT BIND EGFR AND CMET” (MERUS N.V., priority 2022, published 2025).

Experiments:
mouse EGFR = mouse EGFR (Mus musculus, UniProt Q01279); test: Binding to mouse EGFR; conditions: in words
cMET and EGFR = conditions: Moores et al. (2016); cited from earlier work
cMET = cMET (Homo sapiens, UniProt P08581); conditions: reported; cited from earlier work
HCC827-ER1 tumor cells = test: HCC827-ER1 NSCLC CDX model with EGFR exon 19 deletion
From the text: The model HCC827-ER1 was generated in BALB/c nude mice. It carries an EGFR mutation in exon 19 (deletion E746-A750), and has amplified c-MET copy number and Axl expression compared to the wild type HCC827 cell line.
Each mouse was inoculated in the right front flank region with HCC827-ER1 tumor cells mixed with Matrigel for tumor development. […] The date of randomization was denoted as day 0 and dosing was initiated from day 0. […] The dose-free observation period was included to compare duration of response and relapse (tumor re-growth) after treatment end. Mice with tumor volume exceeding 1500 mm^3, or with body weight loss over 20% relative to the weight at the first day of treatment were terminated during the treatment period. Antibody was administered twice a week intra peritoneally (i.p.) at 25 mg/kg dose over a period of 21 days, with a total of 7 doses. […] Eight mice in group 1 were treated with vehicle control (placebo buffer). Tumor volume (mm^3) was measured twice per week in 2 dimensions using a caliper. The animals were checked for any effects of tumor growth and treatments on behavior such as mobility, food and water consumption, body weight gain/loss, eye/hair matting and any other abnormalities. Body weights were measured twice per week after randomization.

[1] = test system: LXFE2478 NSCLC PDX tumor model
Method: This model carries mutation EGFRex20ins (M766_A767insASV).
Insertion of 9 nucleotides in exon 20 in this model affects the EGFR tyrosine kinase domain (M766X) and confers resistance to small molecule EGFR inhibitors. This model carries no mutations in B-RAF, H-/N- and KRAS and PTEN genes (whole exome sequencing was done for both patient tumor and tumor xenograft with matching results).
Antitumor efficacy of all groups was assessed using the control vehicle/placebo buffer group as a reference. Tumor growth inhibition was determined by the comparison of RTVs of the test groups with the control group and is expressed as minimum T/C value in percent. For the evaluation of the statistical significance of antitumor efficacy, the non-parametric Kruskal-Wallis test followed by Dunn's method for multiple comparisons was performed. […] Statistical analysis was only carried out if at least 50% of the initially randomized animals still remained in the relevant group. Comparisons between test groups were carried out for the same days. All p-values <0.05 were considered statistically significant. Statistical calculations were performed using GraphPad Prism bioanalytic software (version 9.10 for Microsoft Windows, GraphPad Software, San Diego, California, USA.
Tumors were harvested from the donor PDX mice, cut into fragments (LXFE2478: 3-4 mm edge length) and inoculated into recipient nude mice subcutaneously (SC) in the flank. When the tumor implants reached approximately 80-200 mm3 in a sufficient number of animals, mice were assigned to groups. Randomization was performed based on “stratified distribution” method. Treatment started on the same day as randomization (day 0).
Treatment started the same day as enrollment (day 0). Mice were terminated during the observation period if the tumor volume was >1000 mm3.
Antibody was administered once a week intra peritoneally (IP) at 5 mg/kg and 25 mg/kg dose over a period of 5 weeks.
After randomization, animals were routinely monitored for morbidity and mortality, they were weighted twice a week, and tumor volumes (TV) were determined twice a week with a caliper. Relative body weight (RBW) was calculated by dividing the absolute weight or volume on a certain day by the absolute weight at day 0 multiplied by 100. Relative tumor volumes (RTV) were calculated by dividing the absolute individual tumor volume on a certain day by the absolute tumor volume at day 0 multiplied by 100.
For mice that lost >10% body weight, weight was measured daily, and animals had facilitated access to feed and water, and access to DietGel.
A dose-free observation period was included to compare duration of response and relapse (tumor re-growth) after treatment end. […]

Chain of cMET (P08581 25-1390): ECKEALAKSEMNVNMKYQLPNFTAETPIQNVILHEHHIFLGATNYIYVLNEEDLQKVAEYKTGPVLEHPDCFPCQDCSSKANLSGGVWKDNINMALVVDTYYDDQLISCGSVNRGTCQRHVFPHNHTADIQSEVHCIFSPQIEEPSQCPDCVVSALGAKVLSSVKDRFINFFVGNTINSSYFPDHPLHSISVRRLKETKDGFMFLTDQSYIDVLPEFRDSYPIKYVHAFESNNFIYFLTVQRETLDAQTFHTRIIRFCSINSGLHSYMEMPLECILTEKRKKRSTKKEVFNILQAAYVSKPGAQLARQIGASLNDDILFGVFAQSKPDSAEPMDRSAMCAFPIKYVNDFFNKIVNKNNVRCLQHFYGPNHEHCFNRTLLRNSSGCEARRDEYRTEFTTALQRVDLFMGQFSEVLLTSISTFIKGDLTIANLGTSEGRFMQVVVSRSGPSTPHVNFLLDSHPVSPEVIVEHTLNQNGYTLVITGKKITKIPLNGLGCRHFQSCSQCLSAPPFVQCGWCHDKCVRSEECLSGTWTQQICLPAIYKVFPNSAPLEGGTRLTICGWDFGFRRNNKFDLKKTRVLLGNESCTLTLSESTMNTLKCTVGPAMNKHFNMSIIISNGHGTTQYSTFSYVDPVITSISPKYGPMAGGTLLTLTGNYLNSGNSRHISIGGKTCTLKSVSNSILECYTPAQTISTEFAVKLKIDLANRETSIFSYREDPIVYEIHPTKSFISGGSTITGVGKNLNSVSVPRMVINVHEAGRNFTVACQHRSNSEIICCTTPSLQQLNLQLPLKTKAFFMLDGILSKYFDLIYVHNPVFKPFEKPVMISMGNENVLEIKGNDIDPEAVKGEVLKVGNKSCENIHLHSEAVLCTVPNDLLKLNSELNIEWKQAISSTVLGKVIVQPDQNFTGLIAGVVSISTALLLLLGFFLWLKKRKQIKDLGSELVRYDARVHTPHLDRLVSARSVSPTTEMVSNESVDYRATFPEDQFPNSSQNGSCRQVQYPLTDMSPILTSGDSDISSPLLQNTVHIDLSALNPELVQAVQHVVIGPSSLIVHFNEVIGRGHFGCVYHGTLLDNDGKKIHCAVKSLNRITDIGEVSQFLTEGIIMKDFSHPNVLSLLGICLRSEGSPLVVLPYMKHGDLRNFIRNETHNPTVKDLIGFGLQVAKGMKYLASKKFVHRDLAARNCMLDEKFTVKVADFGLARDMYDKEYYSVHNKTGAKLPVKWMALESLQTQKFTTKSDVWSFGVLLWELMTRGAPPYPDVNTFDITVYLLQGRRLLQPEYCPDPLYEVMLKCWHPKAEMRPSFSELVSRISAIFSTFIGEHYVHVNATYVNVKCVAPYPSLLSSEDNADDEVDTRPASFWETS

## zalutumumab: EGFR monoclonal antibody in clinical development
Mouse EGFR
  binding to mouse EGFR: do not

## JNJ-61186372: bispecific cMET×EGFR antibody produced by controlled Fab-arm exchange (Moores et al 2016)
cMET and EGFR
  affinity imbalance, greater affinity for cMET than EGFR: approximately 40 ×

## 5D5: reference anti-cMET antibody, Sema Domain, HGF block
cMET
  MOA: HGF block

## C=CC(=O)Nc1cc(Nc2nccc(-c3cn(C)c4ccccc34)n2)c(OC)cc1N(C)CCN(C)C [Osimertinib]
HCC827-ER1 tumor cells; 25 mg/kg
  adverse events: tumor scabbing or tumor ulceration in some mice
HCC827-ER1 tumor cells; mouse, in vivo
  effect on tumor volume: tumor regression
[1]; 5 and 25 mg/kg
  anti-tumor efficacy, monotherapy: dose-dependent anti-tumor efficacy
[1]; Osimertinib 25 mg/kg PO QD
  body weight loss: > 10%
[1]; at 5 mg/kg
  sensitivity of the model to treatment: reduced sensitivity
[1]; mouse, in vivo
  xenograft progression to 750 mm3, mice: 6/9
